IC50 data for 24 compounds are collected here from patent US9233111B2, “Pyrrolo pyrimidine derivatives” (NOVARTIS AG, priority 2011, dated 2016).

Chain of full-length human recombinant BTK (Q06187 whole entry): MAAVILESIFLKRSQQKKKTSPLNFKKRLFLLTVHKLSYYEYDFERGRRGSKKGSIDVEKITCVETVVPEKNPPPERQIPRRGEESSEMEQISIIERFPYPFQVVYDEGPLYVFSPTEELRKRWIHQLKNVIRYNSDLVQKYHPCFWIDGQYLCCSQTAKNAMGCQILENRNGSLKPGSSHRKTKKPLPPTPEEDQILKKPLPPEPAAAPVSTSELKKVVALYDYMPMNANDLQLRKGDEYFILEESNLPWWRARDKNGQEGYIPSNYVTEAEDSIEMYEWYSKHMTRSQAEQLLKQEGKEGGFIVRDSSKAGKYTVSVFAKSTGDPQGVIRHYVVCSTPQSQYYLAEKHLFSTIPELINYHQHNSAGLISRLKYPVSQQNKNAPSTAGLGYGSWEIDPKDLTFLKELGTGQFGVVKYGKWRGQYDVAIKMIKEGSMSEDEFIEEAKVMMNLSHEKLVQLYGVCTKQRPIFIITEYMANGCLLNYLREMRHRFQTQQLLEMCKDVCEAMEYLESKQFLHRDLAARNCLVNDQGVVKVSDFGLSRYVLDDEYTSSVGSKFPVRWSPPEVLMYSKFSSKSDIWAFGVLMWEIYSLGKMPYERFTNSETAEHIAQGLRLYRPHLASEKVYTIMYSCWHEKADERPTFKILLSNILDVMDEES

This test has as its target full-length human recombinant BTK (Homo sapiens (Human), UniProt Q06187). Put plainly: Inhibition of Btk enzymatic activity (biochemical enzyme assay, Caliper). To be noted: 30° C., 60 minutes. The procedure:
The inhibitory activity of the present compounds against Btk was assessed in a biochemical enzyme assay. Assay plates in 384 well format were prepared with 8-point serial dilutions for the test compounds on a Thermo CatX workstation equipped with a Innovadyne Nanodrop Express. The assay plates were prepared by addition of 50 nl per well of compound solution in 90% DMSO. The kinase reactions were started by stepwise addition of 4.5 μl per well of peptide/ATP-solution (4 μM FITC-Ahx-[…]-NH2, 164 μM ATP) in kinase buffer (50 mM HEPES, pH 7.5, 1 mM DTT, 0.02% Tween20, 0.02% BSA, 0.6% DMSO, 10 mM beta-glycerophosphate, and 10 μM sodium orthovanadate, 18 mM MgCl2, 1 mM MnCl2) and 4.5 μl per well of enzyme solution (6.4 nM full-length human recombinant BTK) in kinase buffer. Kinase reactions were incubated at 30° C. for 60 minutes and subsequently terminated by addition of 16 μl per well of stop solution (100 mM HEPES pH 7.5, 5% DMSO, 0.1% Caliper coating reagent, 10 mM EDTA, and 0.015% Brij35). Kinase reactions were analyzed on a Caliper LC3000 workstation by separating phosphorylated and unphosphorylated peptides and kinase activities were calculated from the amounts of newly formed phospho-peptide. Inhibition data were calculated by comparison to control reactions without enzyme (100% inhibition) and without inhibitors (0% inhibition). The concentration of inhibitor required for 50% inhibition (IC50) was calculated from the inhibition in response to inhibitor concentrations.
`Cc1c(NC(=O)c2ccc(N(C)C)cc2)cc(F)cc1-c1ncnc2[nH]c(C3=CCOCC3)cc12` [Example 50, N-{3-[6-(3,6-Dihydro-2H-pyran-4-yl)-7H-pyrrolo[2,3-d]pyrimidin-4-yl]-5-fluoro-2-methyl-phenyl}-4-dimethylamino-benzamide]: the IC50 – broadly, the midpoint of a concentration-inhibition curve – came out at 47 nM.
Under `Cc1c(NC(=O)c2ccc(C(C)(C)C)cc2)cccc1-c1ncnc2[nH]c(C3=CC[S+]([O-])CC3)cc12` (stereo not drawn) [Example 52, 4-tert-Butyl-N-{2-methyl-3-[6-(3,6-dihydro-1-oxido-2H-thiopyran-4-yl)-7H-pyrrolo[2,3-d]pyrimidin-4-yl]-phenyl}-benzamide] stands 24 nM.
Turning to `Cc1c(NC(=O)c2ccc(C(C)(C)C)cc2)cc(F)cc1-c1ncnc2[nH]c(C3=CCNCC3)cc12` [Example 40, 4-tert-Butyl-N-{5-fluoro-2-methyl-3-[6-(1,2,3,6-tetrahydro-pyridin-4-yl)-7H-pyrrolo[2,3-d]pyrimidin-4-yl]-phenyl}-benzamide], the IC50 turned out to be 19 nM.
Under `CN(C)C(=O)N1CC=C(c2cc3c(-c4cccc(N5CCc6cc(C(C)(C)O)ccc6C5=O)c4CO)ncnc3[nH]2)CC1` [Example 47, 4-(4-{2-Hydroxymethyl-3-[6-(1-hydroxy-1-methyl-ethyl)-1-oxo-3,4-dihydro-1H-isoquinolin-2-yl]-phenyl}-7H-pyrrolo[2,3-d]pyrimidin-6-yl)-3,6-dihydro-2H-pyridine-1-carboxylic acid dimethylamide] stands 2 nM; under `CN(C)C1CC=C(c2cc3c(-c4cccc(NC(=O)c5ccc(C(C)(C)C)cc5)c4CO)ncnc3[nH]2)CC1` (stereo not drawn) [Example 56, 4-tert-Butyl-N-{3-[6 (4 dimethylamino-cyclohex-1-enyl)-7H-pyrrolo[2,3-d]pyrimidin-4-yl]-2-hydroxymethyl-phenyl}-benzamide], 2 nM; under `CN(C)C(=O)N1CC=C(c2cc3c(-c4cccc(N5CCc6cc(C(C)(C)C)ccc6C5=O)c4CO)ncnc3[nH]2)CC1` [Example 45, 4-{4-[3-(6-tert-Butyl-1-oxo-3,4-dihydro-1H-isoquinolin-2-yl)-2-hydroxymethyl-phenyl]-7H-pyrrolo[2,3-d]pyrimidin-6-yl}-3,6-dihydro-2H-pyridine-1-carboxylic acid dimethylamide], 8 nM.
Under `Cc1c(NC(=O)c2ccc(C(C)(O)C(F)(F)F)cc2)cc(F)cc1-c1ncnc2[nH]c(C3=CCN(C(=O)N(C)C)CC3)cc12` (stereo not drawn) [Example 18, 4-(4-{5-Fluoro-2-methyl-3-[4-(2,2,2-trifluoro-1-hydroxy-1-methyl-ethyl)-benzoylamino]-phenyl}-7H-pyrrolo[2,3-d]pyrimidin-6-yl)-3,6-dihydro-2H-pyridine-1-carboxylic acid dimethylamide] stands 6 nM; under `Cc1c(NC(=O)c2ccc(S(F)(F)(F)(F)F)cc2)cc(F)cc1-c1ncnc2[nH]c(C3=CCN(C(=O)CO)CC3)cc12` [Example 36, N-(5-Fluoro-3-{6-[1-(2-hydroxy-acetyl)-1,2,3,6-tetrahydro-pyridin-4-yl]-7H-pyrrolo[2,3-d]pyrimidin-4-yl}-2-methyl-phenyl)-4-(pentafluoro-sulfanyl)-benzamide], 4 nM.
Under `Cc1c(NC(=O)c2ccc(C3(C(F)(F)F)CC3)cc2)cc(F)cc1-c1ncnc2[nH]c(C3=CCN(C(=O)N(C)C)CC3)cc12` [Example 9, 4-(4-{5-Fluoro-2-methyl-3-[4-(1-trifluoromethyl-cyclopropyl)-benzoylamino]-phenyl}-7H-pyrrolo[2,3-d]pyrimidin-6-yl)-3,6-dihydro-2H-pyridine-1-carboxylic acid dimethylamide] stands 5 nM.
In the case of `Cc1c(NC(=O)c2ccc3c(C)c[nH]c3c2)cc(F)cc1-c1ncnc2[nH]c(C3=CCN(C(=O)N(C)C)CC3)cc12` [Example 5, 3-Methyl-1H-indole-6-carboxylic acid {3-[6-(1-dimethylcarbamoyl-1,2,3,6-tetrahydro-pyridin-4-yl)-7H-pyrrolo[2,3-d]pyrimidin-4-yl]-5-fluoro-2-methyl-phenyl}-amide], the IC50 came out at 3 nM.
Under `Cc1c(NC(=O)c2ccc(C(C)(C)C)cc2)cccc1-c1ncnc2[nH]c(C3=CCOCC3)cc12` [Example 64, 4-tert-Butyl-N-{3-[6-(3,6-dihydro-2H-pyran-4-yl)-7H-pyrrolo[2,3-d]pyrimidin-4-yl]-2-methyl-phenyl}-benzamide] stands 15 nM; under `CC(C)(C)c1ccc(C(=O)Nc2cccc(-c3ncnc4[nH]c(C5=CCC6(CC5)OCCO6)cc34)c2CO)cc1` [Example 54, 4-tert-Butyl-N-{3-[6-(1,4-dioxa-spiro[4.5]dec-7-en-8-yl)-7H-pyrrolo[2,3-d]pyrimidin-4-yl]-2-hydroxymethyl-phenyl}-benzamide], 24 nM; under `Cc1c(NC(=O)c2ccc(C3CC3)cc2)cc(F)cc1-c1ncnc2[nH]c(C3=CCN(C(=O)N4CCCC4)CC3)cc12` [Example 30, 4-Cyclopropyl-N-(5-fluoro-2-methyl-3-{6-[1-(pyrrolidine-1-carbonyl)-1,2,3,6-tetrahydro-pyridin-4-yl]-7H-pyrrolo[2,3-d]pyrimidin-4-yl}-phenyl)-benzamide], 6 nM.
Under `Cc1c(NC(=O)c2ccc(C3CC3)cc2)cc(F)cc1-c1ncnc2[nH]c(C3=CCN(C(=O)N(C)C)CC3)cc12` [Example 29, 4-{4-[3-(4-Cyclopropyl-benzoylamino)-5-fluoro-2-methyl-phenyl]-7H-pyrrolo[2′3-d]pyrimidin-6-yl}-3,6-dihydro-2H-pyridine-1-carboxylic acid dimethylamide] stands 13 nM.
Under `Cc1c(NC(=O)c2ccc(C(C)(C)C)cc2)cc(F)cc1-c1ncnc2[nH]c(C3=CCS(=O)(=O)CC3)cc12` [Example 26, 4-tert-Butyl-N-{3-[6-(3,6-dihydro-1,1-dioxido-2H-thiopyran-4-yl)-7H-pyrrolo[2,3-d]pyrimidin-4-yl]-5-fluoro-2-methyl-phenyl}-benzamide] stands 35 nM; under `Cc1c(NC(=O)N2CC(OC(C)(C)C)C2)cc(F)cc1-c1ncnc2[nH]c(C3=CCN(C(=O)N(C)C)CC3)cc12` [Example 57, 4-(4-{3-[(3-tert-Butoxy-azetidine-1-carbonyl)-amino]-5-fluoro-2-methyl-phenyl}-7H-pyrrolo[2,3-d]pyrimidin-6-yl)-3,6-dihydro-2H-pyridine-1-carboxylic acid dimethylamide], 7 nM; under `Cc1c(NC(=O)c2ccc(C(C)(C)C)cc2)cccc1-c1ncnc2[nH]c(C3=CCC4(CC3)OCCO4)cc12` [Example 65, 4-tert-Butyl-N-{3-[6-(1,4-dioxa-spiro[4.5]dec-7-en-8-yl)-7H-pyrrolo[2,3-d]pyrimidin-4-yl]-2-methyl-phenyl}-benzamide], 9 nM.
As for `Cc1c(NC(=O)c2ccc(C(C)(C)C)cc2)cc(F)cc1-c1ncnc2[nH]c(C3=CCN(C(=O)N(C)C)CC3)cc12` [Example 41, 4-{4-[3-(4-tert-Butyl-benzoylamino)-5-fluoro-2-methyl-phenyl]-7H-pyrrolo[2,3-d]pyrimidin-6-yl}-3,6-dihydro-2H-pyridine-1-carboxylic acid dimethylamide], the half-inhibitory concentration (IC50) stood at 23 nM.
Turning to `Cc1c(NC(=O)c2ccc(C(C)(C)C)cc2)cc(F)cc1-c1ncnc2[nH]c(C3=CCN(S(C)(=O)=O)CC3)cc12` [Example 42, 4-tert-Butyl-N-{5-fluoro-3-[6-(1-methanesulfonyl-1,2,3,6-tetrahydro-pyridin-4-yl)-7H-pyrrolo[2,3-d]pyrimidin-4-yl]-2-methyl-phenyl}-benzamide], the IC50 came to 30 nM.
Under `Cc1c(NC(=O)c2ccc(C(C)(C)C)cc2)cccc1-c1ncnc2[nH]c(C3=CCS(=O)(=O)CC3)cc12` [Example 53, 4-tert-Butyl-N-{3-[6-(3,6-dihydro-1,1-dioxido-2H-thiopyran-4-yl)-7H-pyrrolo[2,3-d]pyrimidin-4-yl]-2-methyl-phenyl}-benzamide] stands 64 nM; under `CN(C)C(=O)N1CC=C(c2cc3c(-c4cccc(NC(=O)c5ccc(C(C)(C)C)cc5)c4CO)ncnc3[nH]2)CC1` [Example 37, 4-{4-[3-(4-tert-Butyl-benzoylamino)-2-hydroxymethyl-phenyl]-7H-pyrrolo[2,3-d]pyrimidin-6-yl}-3,6-dihydro-2H-pyridine-1-carboxylic acid dimethylamide], 26 nM.
Under `Cc1c(NC(=O)c2ccc(N3CCCCC3)cc2)cc(F)cc1-c1ncnc2[nH]c(C3=CCN(C(=O)N(C)C)CC3)cc12` [Example 7, 4-{4-[5-Fluoro-2-methyl-3-(4-piperidin-1-yl-benzoylamino)-phenyl]-7H-pyrrolo[2,3-d]pyrimidin-6-yl}-3,6-dihydro-2H-pyridine-1-carboxylic acid dimethylamide] stands 3 nM.
Under `Cc1c(NC(=O)c2ccc(N(C)C(C)C)cc2)cc(F)cc1-c1ncnc2[nH]c(C3=CCN(C(=O)N(C)C)CC3)cc12` [Example 4] stands 2 nM; under `Cc1c(-c2ncnc3[nH]c(C4=CCN(C(=O)N(C)C)CC4)cc23)ccc(F)c1NC(=O)N1CC(OC(C)(C)C)C1` [Example 63, 4-(4-{3-[(3-tert-Butoxy-azetidine-1-carbonyl)-amino]-4-fluoro-2-methyl-phenyl}-7H-pyrrolo[2,3-d]pyrimidin-6-yl)-3,6-dihydro-2H-pyridine-1-carboxylic acid dimethylamide], 2 nM.
